This note sets out measurements from patent US10717716B2, “1,3,4-oxadiazole derivative compounds as histone deacetylase 6 inhibitor, and the pharmaceutical composition comprising the same” (Chong Kun Dang Pharmaceutical Corp., priority 2015, dated 2020).

For the assay, the target named is T1, human recombinant HDAC6 (Homo sapiens, UniProt Q9UBN7).
T1 construct: purchased Calbiochem 382180
T1 sequence (Q9UBN7 1-1215): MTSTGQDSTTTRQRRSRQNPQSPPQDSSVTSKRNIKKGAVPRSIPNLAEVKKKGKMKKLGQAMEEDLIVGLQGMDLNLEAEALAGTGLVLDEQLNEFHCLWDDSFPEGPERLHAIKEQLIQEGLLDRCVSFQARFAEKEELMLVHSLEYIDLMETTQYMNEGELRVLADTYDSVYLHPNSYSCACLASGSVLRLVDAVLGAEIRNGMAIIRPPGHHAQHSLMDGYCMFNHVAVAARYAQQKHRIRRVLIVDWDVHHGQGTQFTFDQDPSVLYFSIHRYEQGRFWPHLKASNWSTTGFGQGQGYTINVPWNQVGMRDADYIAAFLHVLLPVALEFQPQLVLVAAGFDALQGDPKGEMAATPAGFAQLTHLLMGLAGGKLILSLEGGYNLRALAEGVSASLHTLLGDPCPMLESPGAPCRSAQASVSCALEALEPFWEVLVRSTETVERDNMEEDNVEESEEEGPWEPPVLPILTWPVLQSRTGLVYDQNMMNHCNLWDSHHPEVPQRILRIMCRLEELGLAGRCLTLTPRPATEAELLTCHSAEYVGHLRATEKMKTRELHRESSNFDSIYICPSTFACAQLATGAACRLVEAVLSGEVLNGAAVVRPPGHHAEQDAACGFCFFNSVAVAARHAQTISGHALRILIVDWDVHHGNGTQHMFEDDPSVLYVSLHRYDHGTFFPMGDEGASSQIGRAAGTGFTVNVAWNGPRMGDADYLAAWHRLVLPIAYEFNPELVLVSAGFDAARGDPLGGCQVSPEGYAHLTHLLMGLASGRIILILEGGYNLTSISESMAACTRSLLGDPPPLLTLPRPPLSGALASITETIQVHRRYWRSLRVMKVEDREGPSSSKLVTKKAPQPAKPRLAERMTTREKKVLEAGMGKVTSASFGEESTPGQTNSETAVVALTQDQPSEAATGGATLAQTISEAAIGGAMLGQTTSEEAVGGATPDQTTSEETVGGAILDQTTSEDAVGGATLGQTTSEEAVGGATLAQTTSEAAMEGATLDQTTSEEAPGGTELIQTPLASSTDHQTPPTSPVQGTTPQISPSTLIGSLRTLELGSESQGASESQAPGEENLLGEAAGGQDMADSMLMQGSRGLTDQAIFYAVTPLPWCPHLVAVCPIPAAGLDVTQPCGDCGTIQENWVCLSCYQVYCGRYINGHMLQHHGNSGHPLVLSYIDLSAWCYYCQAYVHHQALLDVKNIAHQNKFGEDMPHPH
Put plainly: HDAC6 enzyme activity inhibition assay (HDAC Fluorimetric Drug Discovery Kit). In kind it is biochemical. As to conditions: for HDAC6 selectivity (fold): HDAC6 over HDAC1; for IC50: human recombinant HDAC6, same protocol as HDAC1, read-out: HDAC6. Put shortly: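 Human recombinant HDAC1 or HDAC6 (0.3 μg) reacted with 10 μM Fluor de Lys-SIRT1 substrate and 5-fold compound dilutions for 60 min at 30 °C. Developer II added for 30 min, fluorescence read at Ex 360/Em 460; IC50 calculated from the readings.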

On to `O=C(NCCN1CCN(CCCO)CC1)N(Cc1ccc(-c2nnc(C(F)F)o2)cc1F)c1ccccc1` [Compound 21998, 1-(4-(5-(Difluoromethyl)-1,3,4-oxadiazol-2-yl)-2-fluorobenzyl)-3-(2-(4-(3-hydroxypropyl)piperazin-1-yl)ethyl)-1-phenylurea], for which the “HDAC6 selectivity (fold)” value was 153 fold and the IC50 was found to be 66 nM.

In the case of `CC(=O)N1CCCN(CCNC(=O)N(Cc2ccc(-c3nnc(C(F)F)o3)cc2F)c2ccccc2)CC1` [Compound 21999, 3-(2-(4-Acetyl-1,4-diazepan-1-yl)ethyl)-1-(4-(5-(difluoromethyl)-1,3,4-oxadiazol-2-yl)-2-fluorobenzyl)-1-phenylurea], the “HDAC6 selectivity (fold)” value is 85 fold and the IC50 was 117 nM.

In the case of `O=C(NCCN1CCCN(Cc2ccccc2)CC1)N(Cc1ccc(-c2nnc(C(F)F)o2)cc1F)c1ccccc1` [Compound 22000, 3-(2-(4-Benzyl-1,4-diazepan-1-yl)ethyl)-1-(4-(5-(difluoromethyl)-1,3,4-oxadiazol-2-yl)-2-fluorobenzyl)-1-phenylurea], the “HDAC6 selectivity (fold)” value is reported as 61 fold and the IC50 was 165 nM.

In the case of `O=C(C1CC1)N1CCN(CCNC(=O)N(Cc2ccc(-c3nnc(C(F)F)o3)cc2F)c2ccccc2)CC1` [Compound 22001, 3-(2-(4-(Cyclopropanecarbonyl)piperazin-1-yl)ethyl)-1-(4-(5-(difluoromethyl)-1,3,4-oxadiazol-2-yl)-2-fluorobenzyl)-1-phenylurea], the “HDAC6 selectivity (fold)” value is given as 116 fold and the IC50 was found to be 87 nM.

`CN(C)CCCN1CCN(CCNC(=O)N(Cc2ccc(-c3nnc(C(F)F)o3)cc2F)c2ccccc2)CC1` [Compound 22002, 1-(4-(5-(Difluoromethyl)-1,3,4-oxadiazol-2-yl)-2-fluorobenzyl)-3-(2-(4-(3-(dimethylamino)propyl)piperazin-1-yl)ethyl)-1-phenylurea]: the “HDAC6 selectivity (fold)” value came out at 85 fold and the IC50 was determined as 118 nM.

For `O=C(NCCN1CCC(N2CCOCC2)CC1)N(Cc1ccc(-c2nnc(C(F)F)o2)cc1F)c1ccccc1` [Compound 22003, 1-(4-(5-(Difluoromethyl)-1,3,4-oxadiazol-2-yl)-2-fluorobenzyl)-3-(2-(4-morpholinopiperidin-1-yl)ethyl)-1-phenylurea], the “HDAC6 selectivity (fold)” value came to 99 fold and the IC50 stood at 101 nM.

As for `O=C(NCCN1CCC(Cc2ccccc2)CC1)N(Cc1ccc(-c2nnc(C(F)F)o2)cc1F)c1ccccc1` [Compound 22004, 3-(2-(4-Benzylpiperidin-1-yl)ethyl)-1-(4-(5-(difluoromethyl)-1,3,4-oxadiazol-2-yl)-2-fluorobenzyl)-1-phenylurea], the “HDAC6 selectivity (fold)” value is reported as 24 fold and the IC50 is 412 nM.

For `Cc1noc(C2CCN(CCNC(=O)N(Cc3ccc(-c4nnc(C(F)F)o4)cc3F)c3ccccc3)CC2)n1` [Compound 22005, 1-(4-(5-(Difluoromethyl)-1,3,4-oxadiazol-2-yl)-2-fluorobenzyl)-3-(2-(4-(3-methyl-1,2,4-oxadiazol-5-yl)piperidin-1-yl)ethyl)-1-phenylurea], the “HDAC6 selectivity (fold)” value is recorded as 79 fold and the IC50 is 126 nM.

As for `CCN(CCNC(=O)N(Cc1ccc(-c2nnc(C(F)F)o2)cc1F)c1ccccc1)Cc1ccccc1` [Compound 22006, 3-(2-(Benzyl(ethyl)amino)ethyl)-1-(4-(5-(difluoromethyl)-1,3,4-oxadiazol-2-yl)-2-fluorobenzyl)-1-phenylurea], the “HDAC6 selectivity (fold)” value is reported as 37 fold and the IC50 was found to be 270 nM.

With `O=C(NCCN1CCN(c2ccccc2)CC1)N(Cc1ccc(-c2nnc(C(F)F)o2)cc1F)c1ccccc1` [Compound 22007, 1-(4-(5-(Difluoromethyl)-1,3,4-oxadiazol-2-yl)-2-fluorobenzyl)-1-phenyl-3-(2-(4-phenylpiperazin-1-yl)ethyl)urea], the “HDAC6 selectivity (fold)” value is on record as 40 fold and the IC50 turned out to be 249 nM.

In the case of `O=C(NCCN1CCN(c2ccccn2)CC1)N(Cc1ccc(-c2nnc(C(F)F)o2)cc1F)c1ccccc1` [Compound 22008, 1-(4-(5-(Difluoromethyl)-1,3,4-oxadiazol-2-yl)-2-fluorobenzyl)-1-phenyl-3-(2-(4-(pyridin-2-yl)piperazin-1-yl)ethyl)urea], the “HDAC6 selectivity (fold)” value was determined as 73 fold and the IC50 amounted to 138 nM.

Turning to `O=C(NCCN1CCN(c2ccncc2)CC1)N(Cc1ccc(-c2nnc(C(F)F)o2)cc1F)c1ccccc1` [Compound 22009, 1-(4-(5-(Difluoromethyl)-1,3,4-oxadiazol-2-yl)-2-fluorobenzyl)-1-phenyl-3-(2-(4-(pyridin-4-yl)piperazin-1-yl)ethyl)urea], the “HDAC6 selectivity (fold)” value came to 97 fold and the IC50 stood at 103 nM.

Take `O=C(NCCN1CCN(c2ccc(F)cc2)CC1)N(Cc1ccc(-c2nnc(C(F)F)o2)cc1F)c1ccccc1` [Compound 22010, 1-(4-(5-(Difluoromethyl)-1,3,4-oxadiazol-2-yl)-2-fluorobenzyl)-3-(2-(4-(4-fluorophenyl)piperazin-1-yl)ethyl)-1-phenylurea]: the “HDAC6 selectivity (fold)” value came to 29 fold and the IC50 was 341 nM.

With `O=C(NCCN1CCN(c2noc3ccccc23)CC1)N(Cc1ccc(-c2nnc(C(F)F)o2)cc1F)c1ccccc1` [Compound 22011, 3-(2-(4-(Benzo[d]isoxazol-3-yl)piperazin-1-yl)ethyl)-1-(4-(5-(difluoromethyl)-1,3,4-oxadiazol-2-yl)-2-fluorobenzyl)-1-phenylurea], the “HDAC6 selectivity (fold)” value is recorded as 31 fold and the IC50 came to 320 nM.

Regarding `O=C(NCCN1CCN(c2ccc(Cl)c(Cl)c2)CC1)N(Cc1ccc(-c2nnc(C(F)F)o2)cc1F)c1ccccc1` [Compound 22012, 3-(2-(4-(3,4-Dichlorophenyl)piperazin-1-yl)ethyl)-1-(4-(5-(difluoromethyl)-1,3,4-oxadiazol-2-yl)-2-fluorobenzyl)-1-phenylurea], the “HDAC6 selectivity (fold)” value was determined as 10 fold and the IC50 is 1020 nM.

Consider `O=C(NCCN1CCN(Cc2ccccc2)CC1)N(Cc1ccc(-c2nnc(C(F)F)o2)cc1F)c1ccccc1` [Compound 22013, 3-(2-(4-Benzylpiperazin-1-yl)ethyl)-1-(4-(5-(difluoromethyl)-1,3,4-oxadiazol-2-yl)-2-fluorobenzyl)-1-phenylurea], for which the “HDAC6 selectivity (fold)” value was 51 fold and the IC50 was 197 nM.

Regarding `O=C(NCCN1CCN(CCc2ccccc2)CC1)N(Cc1ccc(-c2nnc(C(F)F)o2)cc1F)c1ccccc1` [Compound 22014, 1-(4-(5-(Difluoromethyl)-1,3,4-oxadiazol-2-yl)-2-fluorobenzyl)-3-(2-(4-phenethylpiperazin-1-yl)ethyl)-1-phenylurea], the “HDAC6 selectivity (fold)” value stood at 46 fold and the IC50 was found to be 219 nM.

`O=C(NCCN1CCN(CCc2ccncc2)CC1)N(Cc1ccc(-c2nnc(C(F)F)o2)cc1F)c1ccccc1` [Compound 22015, 1-(4-(5-(Difluoromethyl)-1,3,4-oxadiazol-2-yl)-2-fluorobenzyl)-1-phenyl-3-(2-(4-(2-(pyridin-4-yl)ethyl)piperazin-1-yl)ethyl)urea]: the “HDAC6 selectivity (fold)” value is 105 fold and the IC50 stood at 95 nM.

Consider `O=C(NCCN1CCN(C/C=C/c2ccccc2)CC1)N(Cc1ccc(-c2nnc(C(F)F)o2)cc1F)c1ccccc1` [Compound 22016, 3-(2-(4-Cinnamylpiperazin-1-yl)ethyl)-1-(4-(5-(difluoromethyl)-1,3,4-oxadiazol-2-yl)-2-fluorobenzyl)-1-phenylurea], for which the “HDAC6 selectivity (fold)” value amounted to 42 fold and the IC50 stood at 237 nM.

As for `O=C(NCCN(Cc1ccccc1)Cc1ccccc1)N(Cc1ccc(-c2nnc(C(F)F)o2)cc1F)c1ccccc1` [Compound 22017, 3-(2-(Dibenzylamino)ethyl)-1-(4-(5-(difluoromethyl)-1,3,4-oxadiazol-2-yl)-2-fluorobenzyl)-1-phenylurea], the “HDAC6 selectivity (fold)” value is 7 fold and the IC50 turned out to be 1380 nM.
